50 compounds from the Kinase Knowledgebase extract (Sharma et al. 2016) can be followed below.

As usually defined, the IC50 is the midpoint of a concentration-inhibition curve. A higher IC50 goes with lower potency. What is called inhibition is the change of the read-out against control, counted positive when it falls.

One assay concerns the target MAPK14 (human) (UniProt Q16539). Put plainly: In vitro Inhibition of TNF-alpha Production in PBMC Cells.
The next assay deals with MAPK14 (BALB/cJ mice). The assay can be described thus: In vivo Inhibition of LPS-induced TNF-alpha Production. The note with it: dose or concentration not given here.

Chain of MAPK14 (human) (Q16539 whole entry, looked up): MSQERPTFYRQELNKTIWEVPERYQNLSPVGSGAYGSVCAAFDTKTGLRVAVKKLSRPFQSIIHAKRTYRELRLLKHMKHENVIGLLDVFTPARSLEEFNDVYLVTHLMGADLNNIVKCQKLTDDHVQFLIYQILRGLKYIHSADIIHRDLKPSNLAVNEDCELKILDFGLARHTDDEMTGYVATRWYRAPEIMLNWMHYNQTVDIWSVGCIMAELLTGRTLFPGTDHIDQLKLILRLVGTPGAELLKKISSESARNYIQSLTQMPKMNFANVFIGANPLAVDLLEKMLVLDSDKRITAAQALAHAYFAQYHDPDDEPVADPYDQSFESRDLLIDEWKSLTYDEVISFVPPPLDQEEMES

Compound `COC(=O)c1c(-c2ccncc2)c(-c2ccc(F)cc2)c(C#CCN2CCOCC2)n1C` displayed an IC50 on MAPK14 (human) of 788 nM. In the assay with MAPK14 (BALB/cJ mice), the inhibition was 47%.

For the compound `COC(=O)c1c(-c2ccc(F)cc2)c(-c2ccncc2)cn1C(=O)OC`, the IC50 on MAPK14 (human) worked out at 23 nM. Further, the inhibition in the assay on MAPK14 (BALB/cJ mice) was -22%.

`OCCNCc1[nH]cc(-c2ccc(F)cc2)c1-c1ccncc1` had a half-maximal inhibitory concentration (IC50) against MAPK14 (human) of 148 nM.

Consider `COC(=O)c1c(-c2ccc(F)cc2)c(-c2ccncc2)cn1CCO`, for which, on MAPK14 (human), the half-inhibitory concentration (IC50) is 692 nM.

In turn, `CCOC(=O)c1c(-c2ccc(F)cc2)c(-c2ccncc2)cn1C` returned a half-inhibitory concentration (IC50) against MAPK14 (human) of 125 nM.

`CCOC(=O)c1c(-c2ccc(Br)cc2)c(-c2ccncc2)cn1C`: the 50% inhibitory concentration (IC50) against MAPK14 (human) came out at 211 nM.

At MAPK14 (human), `COC(=O)c1c(-c2ccc(F)cc2)c(-c2ccncc2)c(N2CCN(CC3CCCCC3)CC2)n1C` had an IC50 of 573 nM.

For the compound `COC(=O)c1c(-c2ccc(F)cc2)c(-c2ccncc2)c(NCCc2ccncc2)n1C`, the concentration for half-maximal inhibition (IC50) on MAPK14 (human) was 145 nM.

For the compound `COC(=O)CCn1c(C#CCCO)c(-c2ccncc2)c(-c2ccc(F)cc2)c1C(=O)OC`, on MAPK14 (human), the IC50 amounted to 5280 nM.

`COC(=O)c1c(-c2ccc(F)cc2)c(-c2ccncc2)c(NCc2ccc(OC)cc2)n1C` displayed a half-maximal inhibitory concentration (IC50) against MAPK14 (human) of 42 nM.

`COC(=O)c1c(-c2ccc(F)cc2)c(-c2ccncc2)c(NC2CCN(Cc3ccccc3)CC2)n1C` showed an IC50 on MAPK14 (human) of 1310 nM.

Consider `COC(=O)c1c(-c2ccc(F)cc2)c(-c2ccncc2)c(NCCNC(C)=O)n1C`, for which the IC50 against MAPK14 (human) was 1690 nM.

Consider `CCCc1c(-c2ccnc(N[C@@H](C)COC)n2)c(-c2ccc(F)cc2)cn1C(=O)OC(C)(C)C`, for which the IC50 against MAPK14 (human) came out at 50 nM.

Regarding `CN(CCN1CCOCC1)c1c(-c2ccncc2)c(-c2ccc(F)cc2)cn1C`, the IC50 on MAPK14 (human) amounted to 117 nM.

On to `CC(=O)c1c(-c2ccc(F)cc2)c(-c2ccncc2)cn1C`, for which, on MAPK14 (human), the half-maximal inhibitory concentration (IC50) is 597 nM.

On MAPK14 (human), `Fc1ccc(-c2c[nH]c(CNCc3ccccc3)c2-c2ccncc2)cc1` gave an IC50 of 6 nM.

With `O=C1CCn2cc(-c3ccncc3)c(-c3ccc(F)cc3)c21`, the IC50 against MAPK14 (human) was determined as 138 nM.

On MAPK14 (human), `CCN1CCCC1CNc1c(-c2ccncc2)c(-c2ccc(F)cc2)c(C(=O)OC)n1C` (configuration not stated) displayed an IC50 of 7750 nM.

With `COC(=O)c1c(-c2ccc(F)cc2)c(-c2ccncc2)c(NC(C)=O)n1C`, the half-maximal inhibitory concentration (IC50) against MAPK14 (human) stood at 1490 nM.

For the compound `CCn1c(C(=O)OC)c(-c2ccc(F)cc2)c(-c2ccncc2)c1N(C)CCN1CCOCC1`, the IC50 against MAPK14 (human) was 105 nM.

Turning to `COC(=O)c1c(-c2ccncc2)c(-c2ccc(F)cc2)c(N(C)CCN2CCOCC2)n1C`, the 50% inhibitory concentration (IC50) at MAPK14 (human) was determined as 3510 nM.

Consider `CCCN1CCN(c2c(-c3ccncc3)c(-c3ccc(F)cc3)c(C(=O)OC)n2C)CC1`, for which, on MAPK14 (human), the IC50 came out at 901 nM.

`COC(=O)c1c(-c2ccc(F)cc2)c(-c2ccncc2)c2n1CCC2C` (configuration not stated): the IC50 at MAPK14 (human) was determined as 208 nM.

Consider `CCCc1c(-c2ccnc(N[C@@H](C)c3ccccc3)n2)c(-c2ccc(F)cc2)cn1C(=O)OC(C)(C)C`, for which the inhibition in the assay with MAPK14 (BALB/cJ mice) is -79%.

Regarding `Cn1cc(-c2ccncc2)c(-c2ccc(F)cc2)c1-c1nnco1`, the IC50 against MAPK14 (human) worked out at 18 nM.

In turn, `Cn1c(C#N)c(-c2ccc(F)cc2)c(-c2ccncc2)c1NCCN1CCOCC1` yielded an IC50 against MAPK14 (human) of 351 nM.

`O=C1OCCn2cc(-c3ccncc3)c(-c3ccc(F)cc3)c21` displayed an IC50 on MAPK14 (human) of 160 nM.

For `O=C1CCCn2cc(-c3ccncc3)c(-c3ccc(F)cc3)c21`, at MAPK14 (human), the half-maximal inhibitory concentration (IC50) amounted to 150 nM.

As to `Cn1cc(-c2ccncc2)c(-c2ccc(F)cc2)c1C#N`, on MAPK14 (human), the IC50 was 171 nM.

Compound `CNC(=O)c1c(-c2ccc(F)cc2)c(-c2ccncc2)cn1C` came in with a half-inhibitory concentration (IC50) on MAPK14 (human) of 1480 nM.

For `COC(=O)c1c(-c2ccc(F)cc2)c(-c2ccncc2)c(NCCCN2CCOCC2)n1C`, the inhibition in the assay on MAPK14 (BALB/cJ mice) was determined as 64%.

The compound `CON(C)C(=O)c1c(-c2ccc(F)cc2)c(-c2ccncc2)cn1C` came in with an IC50 against MAPK14 (human) of 5840 nM.

`CCOC(=O)c1c(-c2ccc(F)cc2)c(-c2ccncc2)c(Br)n1C`: the IC50 against MAPK14 (human) turned out to be 86 nM.

In the case of `COC(=O)c1c(-c2ccc(F)cc2)c(-c2ccncc2)cn1CCN(C)C`, the inhibition in the assay on MAPK14 (BALB/cJ mice) was -32%.

Compound `C[C@H](Nc1nccc(-c2c[nH]cc2-c2ccc(F)cc2)n1)c1ccccc1` registered an IC50 against MAPK14 (human) of 3 nM.

`CCCCNCc1c(-c2ccncc2)c(-c2ccc(F)cc2)cn1C` gave an IC50 against MAPK14 (human) of 1080 nM.

Consider `COC(=O)c1c(-c2ccc(F)cc2)c(-c2ccncc2)c(-c2ccncc2)n1C`, for which the inhibition with MAPK14 (BALB/cJ mice) was found to be 51%.

Regarding `CCOC(=O)c1[nH]cc(-c2ccc(F)cc2)c1-c1ccncc1`, at MAPK14 (human), the IC50 turned out to be 145 nM.

`CCOC(=O)c1c(-c2ccc(F)cc2)c(-c2ccncc2)c(CCCO)n1C` came in with an IC50 against MAPK14 (human) of 186 nM.

Regarding `COC(=O)c1c(-c2ccc(F)cc2)c(-c2ccncc2)c(NCCN2CCCC2)n1C`, on MAPK14 (human), the IC50 was found to be 1390 nM.

`COC(=O)CCCn1c(NCCN2CCOCC2)c(-c2ccncc2)c(-c2ccc(F)cc2)c1C(=O)OC` yielded an IC50 at MAPK14 (human) of 29 nM.

At MAPK14 (human), `COC(=O)c1c(-c2ccc(F)cc2)c(-c2ccncc2)c(Nc2cccc(NC(C)=O)c2)n1C` returned an IC50 of 21 nM.

On to `COC(=O)c1c(-c2ccc(F)cc2)c(-c2ccncc2)c(N(C)CCN2CCOCC2)n1C`, for which the 50% inhibitory concentration (IC50) against MAPK14 (human) is 38 nM.

In turn, `CC(O)c1c(-c2ccc(F)cc2)c(-c2ccncc2)cn1C` (configuration not stated) gave an IC50 on MAPK14 (human) of 1450 nM.

As to `COC(=O)c1c(-c2ccc(F)cc2)c(-c2ccncc2)c(N2CCC(NC(=O)OC(C)(C)C)C2)n1C` (configuration not stated), on MAPK14 (human), the IC50 was 1660 nM.

The compound `COC(=O)c1c(-c2ccc(F)cc2)c(-c2ccncc2)cn1CCN1CCOCC1` yielded a 50% inhibitory concentration (IC50) against MAPK14 (human) of 10000 nM.

At MAPK14 (human), `COC(=O)c1c(-c2ccc(F)cc2)c(-c2ccncc2)c(Nc2ccc3c(c2)N(C(C)=O)CC3)n1C` registered an IC50 of 650 nM.

As for `CCCn1c(NCCN2CCOCC2)c(-c2ccncc2)c(-c2ccc(F)cc2)c1C(=O)OC`, on MAPK14 (human), the IC50 is 589 nM.

On MAPK14 (human), `COC(=O)c1c(-c2ccc(F)cc2)c(-c2ccncc2)c(NCCNC(=O)OC(C)(C)C)n1C` displayed an IC50 of 1640 nM.

In the case of `CC(=O)N1CCN(c2c(-c3ccncc3)c(-c3ccc(F)cc3)c(-c3nnco3)n2C)CC1`, the inhibition in the assay on MAPK14 (BALB/cJ mice) stood at 19%.
